Read-outs that look alike come from different tables or passages of the source. No end group written: not given here.
Experiments:
Xanthomonas vesicatoria [1] = test: MIC and lethal concentration (Example 3); type: cell-based; settings: Table 2; for MIC (>90% inhibition): 1-2 days at 25° C.; for LC, lethal concentration (100% inhibition): at least 4 days of incubation
Description: (§1) In-vitro inhibition assays were performed in sterile flat-bottom 96-well plates (Greiner bio-one, Frickenhausen). Antimicrobial peptides were dissolved in 0.01% acetic acid containing 0.2% BSA (500 μg/ml), filter sterilized and stored at −20° C. For inhibition assays dilutions of peptides ranging from 5 to 200 μg/ml were prepared and 10 μl (antibacterial assay) or 20 μl (antifungal assay) of each concentration was loaded per well.
(§2) Bacteria colonies from overnight agar plate cultures were resuspended into 5 ml LB-medium or HPG-medium (OD600 nm=0.08-0.1) and diluted into LB-medium/HPG-medium (1:100). 90 μl of this suspension containing about 10^5-10^6 CFU/ml of tested bacteria were added to each well resulting in final peptide concentrations of 0, 0.5, 1, 2, 5, 10, and 20 μg/ml. […] The lowest concentration, in which there is no observable growth (>90% inhibition) is referred to as minimal inhibitory concentration (MIC). […] For each peptide concentration two identical inhibition assays were performed.

[2] = tested on: Clavibacter michiganensis; test: MIC and lethal concentration (Example 3); type: cell-based; settings: Table 2; for MIC (>90% inhibition): 1-2 days at 25° C.; for LC, lethal concentration (100% inhibition): at least 4 days of incubation
Description: as §1, §2

[3] = tested on: Pseudomonas syringae pv. tomato; test: MIC and lethal concentration (Example 3); type: cell-based; settings: Table 2; for MIC (>90% inhibition): 1-2 days at 25° C.; for LC, lethal concentration (100% inhibition): at least 4 days of incubation
Description: as §1, §2

[4] = tested on: Pectobacterium carotovorum; test: MIC and lethal concentration (Example 3); type: cell-based; settings: Table 2; for MIC (>90% inhibition): 1-2 days at 25° C.; for LC, lethal concentration (100% inhibition): at least 4 days of incubation
Description: as §1, §2

Pseudomonas corrugata [5] = test: MIC and lethal concentration (Example 3); type: cell-based; settings: Table 2; for MIC (>90% inhibition): 1-2 days at 25° C.; for LC, lethal concentration (100% inhibition): at least 4 days of incubation
Description: as §1, §2

[6] = tested on: Pseudomonas syringae pv. syringae; test: MIC and lethal concentration (Example 3); type: cell-based; settings: Table 2; for MIC (>90% inhibition): 1-2 days at 25° C.; for LC, lethal concentration (100% inhibition): at least 4 days of incubation
Description: as §1, §2

Pseudomonas aeruginosa = type: cell-based
Description: (§3) In-vitro inhibition assays were performed in sterile ELISA-plates (Greiner bio-one, Frickenhausen or Nunc, Wiesbaden). Antimicrobial peptides were dissolved in 0.01% acetic acid containing 0.2% BSA and stored at −20° C. […] After incubation for one day at 27° C. growth inhibition of the bacteria was analyzed by a ELISA microplate reader.

Escherichia coli (DH5α) = type: cell-based
Description: as §3

Staphylococcus aureus = type: cell-based
Description: as §3

[7] = tested on: Staphylococcus epidermidis; type: cell-based
Description: as §3

Yersinia enterocolitica = type: cell-based
Description: as §3

[8] = tested on: Pseudomonas syringae pv. syringae
[9] = tested on: Clavibacter michiganensis sub. michiganensis; settings: overnight 25° C., Table 1
Xanthomonas vesicatoria [10] = tested on: Xanthomonas vesicatoria
Pseudomonas corrugata [11] = tested on: Pseudomonas corrugata
Cladosporium herbarum = test: MIC, antifungal in-vitro inhibition assay (Example 2); type: cell-based; settings: Table 1
Description: as §1
(§4) Spores of fungi were collected by water washes of sporulating cultures grown on 2% malt extract agar and spore concentration was determined by microscopy. The concentration of the spores was adjusted to 1.5-2×10^3 spores/ml in 2% malt extract medium and 80 μl of fungal spores were added per well. The final peptide concentrations used in the fungal inhibition assays were […]. After overnight incubation at room temperature the plate were put on a rotary shaker (300 rpm) for further two days to ensure consistantly growth. Antifungal effects of the peptides were determined by a microplate reader (Alternaria, Fusarium) at OD590 nm or by visual screening of the plates (Botrytis, Cladosporium).
(§5) The lowest peptide concentration leading to complete inhibition of bacterial growth or spore germination/mycelial growth (minimal inhibition concentration, MIC) was determined for each organism-peptide combination. For each peptide concentration two identical inhibition assays were performed.

Alternaria alternata = test: as above; type: cell-based; settings: Table 1
Description: as §1, §4, §5

Botrytis cinerea = test: as above; type: cell-based; settings: Table 1
Description: as §1, §4, §5

[12] = tested on: Pectobacterium carotovorum sub. carotovorum
[13] = tested on: Pseudomonas syringae pv. tomato
Enterobacter cloacae = type: cell-based
Description: as §3

Klebsiella pneumoniae = type: cell-based
Description: as §3

Klebsiiella oxytoca = type: cell-based
Description: as §3

human erythrocytes = test: Hemolytic activity, hemoglobin release; type: cell-based; settings: 45 min at 37° C., Table 3
Description: The hemolytic activity of the peptides was evaluated by determining hemoglobin release of suspensions of fresh human erythrocytes at 405 nm. Human red blood cells were centrifuged and washed three times with Tris-buffer (10 mM Tris, 150 mM NaCl, pH 7.4). Eighty μl of human red blood cells (1.5×10^9/ml) were added to 20 μl of the peptides solution (peptides dissolved in 0.2% BSA, 0.01% HAc) in 96-well plates (Greiner bio-one, Frickenhausen) and incubated for 45 min at 37° C. The endconcentration of the peptides were 0, 20, 50, 100 and 200 μg/ml. After centrifugation (1500×g, 5 min, 20° C.) 30 μl aliquots of the supernatant were transferred to 96-well plates containing 100 μl water. Hemolysis was measured by absorbance at 405 nm with a microplate reader. 100% hemolysis were determined in 2% SDS. The hemolysis percentage was calculated using the following equation: % hemolysis=[(Abs405 nm in the peptide solution−Abs405 nm in peptides solvent)/(Abs405 nm in 2% SDS−Abs405 nm in peptide solvent)]×100.
Further hemolytic activities of the various peptides of the present invention may be taken from the table depicted in example 3, last row indicated as “Hemolytic activity”. In connection therewith, however, the concentrations are stated where at least 50% hemolysis was observed.

[14] = tested on: human immundeficiency virus (HIV); type: cell-based; settings: HeLa cells LC5-RIC pre-incubated 30 min with peptide, read after 72 h; read-out: IC50, concentration where the infection is decreased by 50% (compared to non-treated controls)
Description: To measure the activity of the designed oligopeptides against human immundeficiency virus (HIV) a fluorescence-based reporter system was used. HeLa cells (LC5-RIC) harbour a reporter gene, which regulates in dependency of HIV Rev and Tat proteins the synthesis of a red fluorescing protein. In this way the infection of the HeLa cells (LC5-RIC) is indicated and the infection rate can be quantified using a fluorescence microplate reader.
(§6) Antimicrobial oligopeptides were dissolved in 0.01% acetic acid containing 0.2% BSA (500 μg/ml), filter sterilized and stored at −20° C. […] (in 5% CO2). Afterwards, virus particles were added to the pre-treated HeLa cells and the infection was quantified by measuring red fluorescence with a fluorescence microplate reader after 72 h incubation. The viability of the HeLa cells was determined by measuring the activity of the mitochondrial dehydrogenase according to Lindl and Bauer (1994) and Mosmann (1983).

HeLa cells = test: Cell viability, mitochondrial dehydrogenase activity; type: cell-based; settings: at the IC50 concentration (6.8 μM)
Description: as §6

| Substance | MIC (>90% inhibition) (Xanthomonas vesicatoria [1]) | LC, lethal concentration (100% inhibition) (Xanthomonas vesicatoria [1]) | MIC (>90% inhibition) [2] | LC, lethal concentration (100% inhibition) [2] | MIC (>90% inhibition) [3] | LC, lethal concentration (100% inhibition) [3] | MIC (>90% inhibition) [4] | LC, lethal concentration (100% inhibition) [4] | MIC (>90% inhibition) (Pseudomonas corrugata [5]) | LC, lethal concentration (100% inhibition) (Pseudomonas corrugata [5]) | MIC (>90% inhibition) [6] [µg/mL] | LC, lethal concentration (100% inhibition) [6] [µg/mL] | MIC (>90% inhibition) (Pseudomonas aeruginosa) [µg/mL] | MIC (>90% inhibition) (Escherichia coli (DH5α); DH5α) [µg/mL] | MIC (>90% inhibition) (Staphylococcus aureus) [µg/mL] | MIC (>90% inhibition) [7] [µg/mL] | MIC (>90% inhibition) (Yersinia enterocolitica) [µg/mL] | Minimal inhibition concentration (MIC) for complete inhibition of bacterial growth [9] [µg/mL] | Minimal inhibition concentration (MIC) for complete inhibition of spore germination/mycelial growth (Cladosporium herbarum) [µg/mL] | Minimal inhibition concentration (MIC) for complete inhibition of spore germination/mycelial growth (Alternaria alternata) [µg/mL] | further results |
| --- | --- | --- | --- | --- | --- | --- | --- | --- | --- | --- | --- | --- | --- | --- | --- | --- | --- | --- | --- | --- | --- |
| LRFLKKALKKLF-NH2 [SP10-2] | 0.25/0.25 μg/ml | 0.25/0.25 μg/ml | 0.25/0.25 μg/ml | 0.25/0.25 μg/ml | 0.5/0.5 μg/ml | 0.5/0.5 μg/ml | 1.0 µg/mL | 2.5 µg/mL | 0.5/0.5 μg/ml | 0.5/0.5 μg/ml | 0.1 | 0.25 | 1 | 1 | 1 | 1 | 10 | – | – | – | – |
| LRFLKKILKHLF-NH2 [SP10, LRFLKKILKHLF -NH2] | 0.5/0.5 μg/ml | 0.5/0.5 μg/ml | 0.5/0.5 μg/ml | 0.5/0.5 μg/ml | 2.5/2.5 μg/ml | 2.5/2.5 μg/ml | 1.0 µg/mL | 2.5 µg/mL | 0.5 µg/mL | 1.0 µg/mL | 0.5 | 1.0 | 10 | 10 | 5 | 2 | 10 | 10 | 10 | >100 | Minimal inhibition concentration (MIC) for complete inhibition of bacterial growth [8]: 10 µg/mL; Minimal inhibition concentration (MIC) for complete inhibition of bacterial growth (Xanthomonas vesicatoria [10]): 5 µg/mL; Minimal inhibition concentration (MIC) for complete inhibition of bacterial growth (Pseudomonas corrugata [11]): 20 µg/mL; Minimal inhibition concentration (MIC) for complete inhibition of spore germination/mycelial growth (Botrytis cinerea): >100 µg/mL; Minimal inhibition concentration (MIC) for complete inhibition of bacterial growth [12]: 20 µg/mL; Minimal inhibition concentration (MIC) for complete inhibition of bacterial growth [13]: 10 µg/mL; MIC (>90% inhibition) (Enterobacter cloacae): 20 µg/mL; MIC (>90% inhibition) (Klebsiella pneumoniae): 20 µg/mL; MIC (>90% inhibition) (Klebsiiella oxytoca): 20 µg/mL |
| LRKLKKILKKLF-NH2 [SP10-10] | 0.1 µg/mL | 0.5 µg/mL | 0.25 µg/mL | 0.5 µg/mL | 0.5 µg/mL | 1.0 µg/mL | 2.5 µg/mL | 5.0 µg/mL | 0.25/0.25 μg/ml | 0.25/0.25 μg/ml | 0.25 | 0.5 | – | – | – | – | – | – | – | – | MIC (>90% inhibition) (Pseudomonas aeruginosa; Pseudomonas aeruginosa, one day at 27° C., Table 4): 2 µg/mL; MIC (>90% inhibition) (Escherichia coli (DH5α); Escherichia coli (DH5α), one day at 27° C., Table 4): 1 µg/mL; MIC (>90% inhibition) (Staphylococcus aureus; Staphylococcus aureus, one day at 27° C., Table 4): 10 µg/mL; MIC (>90% inhibition) ([7]; Staphylococcus epidermidis, one day at 27° C., Table 4): 1 µg/mL; MIC (>90% inhibition) (Yersinia enterocolitica; Yersinia enterocolitica, one day at 27° C., Table 4): >50 µg/mL |
| LRFLKKILKHLF (also: D-amino acids incorporated, places not given here) [SP10-D] | – | – | – | – | – | – | – | – | – | – | – | – | – | – | – | – | – | 5 | 5 | 5 | Minimal inhibition concentration (MIC) for complete inhibition of bacterial growth ([8]; Pseudomonas syringae pv. syringae, overnight 25° C., Table 1): 2.5 µg/mL; Minimal inhibition concentration (MIC) for complete inhibition of bacterial growth (Xanthomonas vesicatoria [10]; Xanthomonas vesicatoria, overnight 25° C., Table 1): 2 µg/mL; Minimal inhibition concentration (MIC) for complete inhibition of bacterial growth (Pseudomonas corrugata [11]; Pseudomonas corrugata, overnight 25° C., Table 1): 2.5 µg/mL; Minimal inhibition concentration (MIC) for complete inhibition of spore germination/mycelial growth (Botrytis cinerea): 10 µg/mL; Minimal inhibition concentration (MIC) for complete inhibition of bacterial growth ([12]; Pectobacterium carotovorum sub. carotovorum, overnight 25° C., Table 1): >40 µg/mL; Minimal inhibition concentration (MIC) for complete inhibition of bacterial growth ([13]; Pseudomonas syringae pv. tomato, overnight 25° C., Table 1): 0.5 µg/mL; Hemolytic activity, concentration where at least 25% hemolysis was observed (human erythrocytes): >200 µg/mL |
| LRKAKKIAKKLF-NH2 [SP10-11] | 0.5 µg/mL | 1.0 µg/mL | 5.0/5.0 μg/ml | 5.0/5.0 μg/ml | 0.5/0.5 μg/ml | 0.5/0.5 μg/ml | >10/>10 μg/ml | >10/>10 μg/ml | 0.5/0.5 μg/ml | 0.5/0.5 μg/ml | 0.1 | 0.25 | – | – | – | – | – | – | – | – | IC50 [14]: 6.8 µM; negative/toxic effect on test cells (HeLa cells) (HeLa cells): No negative/toxic effect |

Source: patent US20120020940A1, “ANTIMICROBIAL PEPTIDES” (Helmholtz Zentrum München Deutsches Forschungszentrum Für …, priority 2008, published 2012)
